Assay results from the supplement of paper PMC10307832.

Key:
Experiment in all cases: relative viability (nuclei count vs DMSO), 5 days (fraction); higher = more cells survive
[1] = compound: C1=CC=C(C(=C1)C2=CC=C(C=C2)C3=CSC4=C3C(=C(C(=O)N4)C#N)O)O + C[C@@H](Oc1cc(-c2cnn(C3CCNCC3)c2)cnc1N)c1c(Cl)ccc(F)c1Cl [Crizotinib] (partner 1 µM)
Procedure, shortened: (§1)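 Values are medians from duplicate plates. Each reflects relative viability, defined as the nuclei count of treated wells over that of vehicle wells. Lung cancer cell lines in 1536-well plates were pin-tool dosed one day after seeding with one drug alone or with a fixed anchor-drug dose plus five library-drug doses (not always all listed) in √10 steps, then fixed, stained and imaged at 4× after 5 days.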

[2] = compound: C1=CC=C(C(=C1)C2=CC=C(C=C2)C3=CSC4=C3C(=C(C(=O)N4)C#N)O)O + CCNC(=O)c1noc(-c2cc(C(C)C)c(O)cc2O)c1-c1ccc(CN2CCOCC2)cc1 [Luminespib] (partner 0.01 µM)
Procedure, shortened: as §1

[3] = compound: C1=CC=C(C(=C1)C2=CC=C(C=C2)C3=CSC4=C3C(=C(C(=O)N4)C#N)O)O + NC(=O)Nc1cc(-c2cccc(F)c2)sc1C(=O)N[C@H]1CCCNC1 [AZD7762] (partner 0.2 µM)
Procedure, shortened: as §1

TGX 221 + Lapatinib = compound: CC1=CN2C(=O)C=C(N=C2C(=C1)C(C)NC3=CC=CC=C3)N4CCOCC4 [TGX 221] + CS(=O)(=O)CCNCc1ccc(-c2ccc3ncnc(Nc4ccc(OCc5cccc(F)c5)c(Cl)c4)c3c2)o1 [Lapatinib] (partner 2 µM)
Procedure, shortened: as §1

Cell Line	relative viability ([1]; first compound 0.08 µM)	relative viability ([1]; first compound 0.253 µM)	relative viability ([1]; first compound 0.8 µM)	relative viability ([1]; first compound 2.53 µM)	relative viability ([1]; first compound 8 µM)	relative viability ([2]; first compound 0.08 µM)	relative viability ([2]; first compound 0.253 µM)	relative viability ([2]; first compound 0.8 µM)	relative viability ([2]; first compound 2.53 µM)	relative viability ([2]; first compound 8 µM)	relative viability ([3]; first compound 0.08 µM)	relative viability ([3]; first compound 0.253 µM)	relative viability ([3]; first compound 0.8 µM)	relative viability ([3]; first compound 2.53 µM)	relative viability ([3]; first compound 8 µM)	relative viability (TGX 221 + Lapatinib; first compound 0.08 µM)	relative viability (TGX 221 + Lapatinib; first compound 0.253 µM)	relative viability (TGX 221 + Lapatinib; first compound 0.8 µM)	relative viability (TGX 221 + Lapatinib; first compound 2.53 µM)	relative viability (TGX 221 + Lapatinib; first compound 8 µM)
BEN	0.771	0.948	0.886	1.02	0.776	0.354	0.345	0.305	0.71	0.331	0.647	0.692	0.675	0.807	0.73	0.721	0.719	0.506	0.68	0.605
LC-2-ad	0.42	0.489	0.452	0.49	0.438	1.08	1.4	1.01	1.23	0.983	0.873	0.798	0.871	0.872	0.824	0.943	–	0.972	1.01	0.978
NCI-H650	0.713	1.05	0.633	0.703	0.719	0.778	0.898	0.67	0.902	0.78	0.911	1.04	1.17	1.02	0.817	1	0.98	0.706	0.908	0.76
LCLC-97TM1	0.428	0.65	0.495	0.271	0.191	0.971	1.07	0.78	0.729	0.654	0.225	0.259	0.258	0.278	0.148	1.12	0.726	1.12	1.05	1.02
H3255	0.806	1.01	0.723	0.873	0.815	0.968	1.02	0.713	0.852	0.895	0.898	1.07	0.757	0.9	0.848	0.301	0.225	0.24	0.277	0.211
EPLC-272H	–	1.04	0.839	0.891	0.796	0.279	0.282	0.247	0.223	0.282	0.258	–	0.247	0.208	0.183	1.04	0.881	0.822	–	0.962
NCI-H1734	0.627	0.703	0.689	0.634	0.444	0.16	0.245	0.196	0.214	0.208	0.573	0.511	0.559	0.594	0.459	0.907	1.05	1.1	1.06	0.927
NCI-H2087	0.845	1.04	0.914	1.02	0.825	0.165	0.162	0.222	0.172	0.204	1.58	1.2	1.25	1.41	0.75	1.09	0.912	1.13	0.985	1.11
NCI-H1666	0.914	1.15	0.731	0.769	1.03	0.942	1.05	0.949	1.01	1.01	0.807	0.894	0.8	0.796	0.706	0.648	0.654	0.695	0.618	0.683
NCI-H1915	0.806	1.05	0.828	0.937	0.65	0.665	0.632	–	0.929	0.576	0.657	0.754	0.696	0.697	0.649	0.88	0.978	0.999	0.963	0.985
RERF-LC-KJ	0.875	0.885	0.858	0.86	0.763	1.34	1.37	1.44	1.17	0.843	0.884	1.06	0.947	0.778	0.553	0.837	0.824	0.749	0.829	0.84
NCI-H2085	0.704	0.983	0.859	0.952	0.867	0.403	0.475	0.479	0.499	0.416	0.891	1.06	0.86	1.02	0.997	0.666	0.644	0.681	0.469	0.462
PC-14	0.851	0.859	0.869	1.02	0.907	–	0.185	0.105	0.162	0.142	0.316	0.272	0.332	0.363	0.24	0.334	0.269	0.289	0.28	0.26
NCI-H2126	0.921	1.11	1	1.09	0.912	0.894	0.895	0.89	0.948	0.928	1.01	1.09	0.973	1.1	0.763	0.61	0.752	0.667	0.616	0.717
NCI-H2347	0.717	0.807	0.558	0.658	0.687	0.354	0.404	0.405	0.37	0.492	0.692	0.79	0.758	0.694	0.739	0.945	0.908	0.976	0.996	0.915
HCC-15	0.696	0.885	0.855	0.886	0.692	0.277	0.289	0.297	0.38	0.3	1.4	1.38	1.46	1.32	0.93	0.842	0.8	0.821	0.823	0.861
HCC-44	0.845	0.833	0.754	0.901	0.625	–	1.55	0.993	1.12	0.822	1.13	1.11	1.01	1.01	1.02	1	0.982	0.975	0.984	1.05

Cell Line	relative viability ([1]; first compound 0.08 µM)	relative viability ([1]; first compound 0.253 µM)	relative viability ([1]; first compound 0.8 µM)	relative viability ([1]; first compound 2.53 µM)	relative viability ([1]; first compound 8 µM)	relative viability ([2]; first compound 0.08 µM)	relative viability ([2]; first compound 0.253 µM)	relative viability ([2]; first compound 0.8 µM)	relative viability ([2]; first compound 2.53 µM)	relative viability ([2]; first compound 8 µM)	relative viability ([3]; first compound 0.08 µM)	relative viability ([3]; first compound 0.253 µM)	relative viability ([3]; first compound 0.8 µM)	relative viability ([3]; first compound 2.53 µM)	relative viability ([3]; first compound 8 µM)	relative viability (TGX 221 + Lapatinib; first compound 0.08 µM)	relative viability (TGX 221 + Lapatinib; first compound 0.253 µM)	relative viability (TGX 221 + Lapatinib; first compound 0.8 µM)	relative viability (TGX 221 + Lapatinib; first compound 2.53 µM)	relative viability (TGX 221 + Lapatinib; first compound 8 µM)
NCI-H1355	1.2	1.16	0.991	1.03	0.841	0.542	0.681	0.727	0.61	0.533	0.693	0.899	0.739	0.763	0.752	1.07	0.964	0.859	0.95	0.852
NCI-H2405	0.787	0.844	0.855	0.812	0.787	0.723	0.855	0.675	0.604	0.567	0.661	–	0.752	0.635	0.686	0.836	1.02	0.971	1.02	0.901
EKVX	0.947	1.06	0.824	1.36	0.803	1.14	0.977	0.863	0.912	0.726	0.696	0.699	0.725	0.746	0.595	0.231	0.194	0.213	0.182	0.19
NCI-H1993	0.794	0.922	0.816	0.776	0.741	0.625	0.715	0.7	0.763	0.646	0.812	0.841	0.811	0.74	0.646	0.786	0.697	0.766	0.689	0.915
HOP-62	0.901	1.14	0.983	1.04	0.783	0.925	0.892	0.876	1.05	0.762	0.533	0.548	0.376	0.704	0.474	1.15	0.987	1.09	1.02	0.912
ABC-1	0.743	1.55	1.05	0.928	1	0.509	0.768	0.78	0.481	0.513	0.781	0.881	0.799	0.855	0.827	0.987	1.14	1.12	1.24	1.09
NCI-H1755	0.74	0.916	0.738	0.97	0.827	0.401	0.302	0.336	0.349	0.447	0.44	0.466	0.572	0.435	0.377	1.06	1.02	1.01	0.974	0.943
NCI-H838	0.639	1.08	0.892	0.794	0.732	0.276	0.333	0.242	0.197	0.329	0.914	0.923	1.02	0.875	0.839	1.06	0.876	0.886	0.822	0.718
NCI-H322M	0.708	0.535	0.882	0.99	0.868	0.792	0.808	0.881	0.911	0.758	0.599	0.6	0.522	0.639	0.64	0.567	0.6	0.547	0.562	0.67
EMC-BAC-2	0.741	0.824	0.632	0.821	0.644	0.953	1.25	1.25	1.26	1.18	1.05	1.21	1.11	0.981	0.939	0.841	0.83	0.894	0.903	0.874
HARA	–	1.51	1.1	1.05	0.842	0.375	0.707	0.553	0.592	0.682	0.286	0.361	0.345	0.284	0.304	0.788	0.722	0.707	0.662	0.766
NCI-H727	0.701	0.961	0.864	0.995	0.756	0.451	0.356	0.43	0.487	0.341	0.569	0.541	0.603	0.543	0.434	0.751	0.731	0.794	0.832	0.919
NCI-H1944	1.08	1.19	1.07	1.23	1.04	0.839	0.736	0.752	0.777	0.724	0.67	0.537	0.696	0.469	0.603	0.705	0.784	0.777	0.836	0.714
201T	0.992	1.08	1.06	1.01	1.11	0.873	0.981	1.03	1.09	1.08	0.634	0.616	0.652	0.704	0.717	–	1.05	0.98	1.02	0.943
NCI-H460	–	1.03	0.955	1.03	0.27	0.0357	0.0366	0.0362	0.0279	0.036	0.579	0.68	0.604	0.611	0.585	0.709	0.795	0.983	0.969	0.966
LOU-NH91	0.718	0.772	0.792	0.667	0.704	0.439	0.41	0.304	0.364	0.33	0.79	0.804	0.745	0.733	0.701	0.71	0.814	0.751	0.728	0.739
